The results in this text go back to patent US11566007B2, “Ras inhibitors” (Revolution Medicines, Inc., priority 2019, dated 2023).

Experiment [1] has as its system NCI-H358 cells (K-Ras G12C). As to the kind of experiment: Potency assay: pERK in NCI-H358 cells. The format is cell-based, human. Particulars: Homo sapiens, NCI-H358; H358 KRAS G12C; read-out: pERK EC50. In short, it runs like this:
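4 h cpd, 37 °C; 10-pt 3-fold series, 10 mM DMSO top stock, duplicates. Readout pERK: AlphaLISA SureFire Ultra or In-Cell Western (IR-800CW secondary, DRAQ5 DNA stain). IC50, 4-PL fit vs log conc.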

Experiment [2] deals with KRAS G12S (Homo sapiens (Human), UniProt P01116+P62937, G12S). In words: Ras-Raf (BRAF RBD) disruption / FRET / MOA assay, KRAS G12S. The format is biochemical. To be noted: Ras-Raf disruption/FRET/MOA assay; class symbols; read-out: KRAS G12S FRET data IC50. In a few lines: (§1)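 Compound-driven ternary complex of nucleotide-loaded Ras with cyclophilin A, disrupting BRAF RBD binding. 10-point 3-fold dilution from 30 μM final, 3 h at 25° C, then anti-His Eu-W1024 (10 nM) and anti-GST allophycocyanin (50 nM) for 1.5 h. IC50 from TR-FRET ratio decrease versus DMSO.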
Chain of KRAS G12S (P01116-2 other isoform, or with tags, fused parts or gaps G12S): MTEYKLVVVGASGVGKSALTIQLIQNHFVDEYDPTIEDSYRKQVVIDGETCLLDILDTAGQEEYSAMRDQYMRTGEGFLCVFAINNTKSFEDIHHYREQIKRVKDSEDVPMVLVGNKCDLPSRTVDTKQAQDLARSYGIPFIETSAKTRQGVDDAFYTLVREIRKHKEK
Chain of KRAS G12S (P62937 whole entry): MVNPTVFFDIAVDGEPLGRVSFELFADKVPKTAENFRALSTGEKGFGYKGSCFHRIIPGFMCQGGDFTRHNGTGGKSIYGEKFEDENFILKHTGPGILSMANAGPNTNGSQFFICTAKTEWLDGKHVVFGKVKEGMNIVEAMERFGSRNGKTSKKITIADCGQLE

Experiment [3] addresses NRAS Q61R (Homo sapiens (Human), UniProt P01111+P62937, Q61R). As to the kind of experiment: Ras-Raf (BRAF RBD) disruption / FRET / MOA assay, NRAS Q61R. Type of experiment: biochemical. Particulars: NRAS Q61R; Ras-Raf disruption/FRET/MOA assay; read-out: IC50* NRAS Q61R FRET data. In a few lines: (§2)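 Compounds (30 μM top final, 10-point 3-fold dilutions) incubated 3 h at 25° C with nucleotide-loaded Ras, cyclophilin A and BRAF RBD. Detection with 10 nM anti-His Eu-W1024 and 50 nM anti-GST allophycocyanin over another 1.5 h. Lowered TR-FRET ratio relative to DMSO wells gives IC50.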

For experiment [4], the target named is KRAS WT (Homo sapiens (Human), UniProt P01116+P62937). As to the kind of experiment: Ras-Raf (BRAF RBD) disruption / FRET / MOA assay, KRAS WT. Particulars: read-out: IC50* KRAS WT FRET data. The format is biochemical. In a few lines:
as §1

Experiment [5] has as its target KRAS Q61H (Homo sapiens (Human), UniProt P01116+P62937, Q61H). As to the kind of experiment: Ras-Raf (BRAF RBD) disruption / FRET / MOA assay, KRAS Q61H. The format is biochemical. To be noted: Ras-Raf disruption/FRET/MOA assay; class symbols; read-out: KRAS Q61H FRET data IC50. In a few lines: as §2
Experiment [6] addresses K-Ras G13C (Homo sapiens (Human), UniProt P01116+P62937, G13C). As to the kind of experiment: Ras-Raf (BRAF RBD) disruption / FRET / MOA assay, KRAS G13C. Type of experiment: biochemical. To be noted: KRAS G13C; Ras-Raf disruption/FRET/MOA assay; read-out: IC50* KRAS G13C FRET data. In short, it runs like this: as §1
The target in experiment [7] is KRAS G13D (Homo sapiens (Human), UniProt P01116+P62937, G13D). As to the kind of experiment: Ras-Raf (BRAF RBD) disruption / FRET / MOA assay, KRAS G13D. The format is biochemical. To be noted: read-out: IC50* KRAS G13D FRET data. In a few lines:
as §1

pEC50, pIC50: −log10 of the molar value. Values joined by “and” are separate entries in the source; they are usually repeats but may differ in a detail not shown here. Equal entries are not always repeated. Some results are limits rather than exact numbers.

Chain of KRAS Q61H (P01116-2 other isoform, or with tags, fused parts or gaps Q61H): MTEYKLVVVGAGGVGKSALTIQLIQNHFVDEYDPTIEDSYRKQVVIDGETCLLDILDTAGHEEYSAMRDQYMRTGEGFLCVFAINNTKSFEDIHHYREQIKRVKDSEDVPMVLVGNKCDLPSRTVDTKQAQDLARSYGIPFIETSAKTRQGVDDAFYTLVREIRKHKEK
Chain of KRAS Q61H (P62937 whole entry): as the sequence (P62937 whole entry) above
Chain of NRAS Q61R (P01111 whole entry Q61R): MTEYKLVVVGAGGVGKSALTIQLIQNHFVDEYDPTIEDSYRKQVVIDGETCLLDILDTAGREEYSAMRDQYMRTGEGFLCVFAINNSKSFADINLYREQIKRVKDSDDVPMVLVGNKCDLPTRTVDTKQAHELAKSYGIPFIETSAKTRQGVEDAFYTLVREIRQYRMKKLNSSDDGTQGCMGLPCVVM
Chain of NRAS Q61R (P62937 whole entry): as the sequence (P62937 whole entry) above
Chain of KRAS G13D (P01116-2 other isoform, or with tags, fused parts or gaps G13D): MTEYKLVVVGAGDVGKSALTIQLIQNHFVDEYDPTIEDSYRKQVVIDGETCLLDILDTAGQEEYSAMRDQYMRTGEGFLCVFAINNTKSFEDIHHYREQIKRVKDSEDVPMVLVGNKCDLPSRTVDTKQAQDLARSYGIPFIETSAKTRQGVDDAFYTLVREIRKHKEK
Chain of KRAS G13D (P62937 whole entry): as the sequence (P62937 whole entry) above
Chain of K-Ras G13C (P01116-2 other isoform, or with tags, fused parts or gaps G13C): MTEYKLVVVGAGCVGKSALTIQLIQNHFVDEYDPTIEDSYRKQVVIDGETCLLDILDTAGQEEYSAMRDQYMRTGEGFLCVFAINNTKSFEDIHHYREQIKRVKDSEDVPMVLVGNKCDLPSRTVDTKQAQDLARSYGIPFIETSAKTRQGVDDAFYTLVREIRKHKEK
Chain of K-Ras G13C (P62937 whole entry): as the sequence (P62937 whole entry) above
Chain of KRAS WT (P01116-2 other isoform, or with tags, fused parts or gaps): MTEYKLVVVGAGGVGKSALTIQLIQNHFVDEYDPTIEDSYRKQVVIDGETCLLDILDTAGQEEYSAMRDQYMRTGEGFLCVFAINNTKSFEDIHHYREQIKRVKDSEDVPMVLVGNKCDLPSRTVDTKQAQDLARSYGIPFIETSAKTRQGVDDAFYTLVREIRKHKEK
Chain of KRAS WT (P62937 whole entry): as the sequence (P62937 whole entry) above

As for `CCn1c(-c2cccnc2[C@H](C)OC)c2c3cc(ccc31)-c1cccc(c1)C[C@H](NC(=O)C(COC1CN(C(=O)C#CC(C)(C)N(C)C)C1)C(C)C)C(=O)N1CCC[C@H](N1)C(=O)OCC(C)(C)C2` (stereo partly drawn) [Example A316, (2R)-2-(((1-(4-(dimethylamino)-4-methylpent-2-ynoyl)azetidin-3-yl)oxy)methyl)-N-((6^3S,4S)-1^1-ethyl-1^2-(2-((S)-1-methoxyethyl)pyridin-3-yl)-10,10-dimethyl-5,7-dioxo-6^1,6^2,6^3,6^4,6^5,6^6-hexahydro-1^1H-8-oxa-1(5,3)-indola-6(1,3)-pyridazina-2(1,3)-benzenacycloundecaphane-4-yl)-3-methylbutanamide], the negative-log EC50 (pEC50) in experiment [1] is > 5.30. Also, the pIC50 in experiment [2], in experiment [3], in experiment [4], in experiment [5] and in experiment [7] was < 5.00 in each case. Further, the IC50 in experiment [6] is 1 µM to 10 µM (2×) and > 10 µM.
For the compound `CO[C@@H](C)c1ncccc1-c1c2c3cc(ccc3n1CC(F)(F)F)N1CCO[C@@H](C[C@H](NC(=O)[C@@H](COC3CN(C(=O)C#CC(C)(C)N(C)C)C3)C(C)C)C(=O)N3CCC[C@H](N3)C(=O)OCC(C)(C)C2)C1` (atropisomer, axis not shown) [Example A375, (2R)-2-(((1-(4-(dimethylamino)-4-methylpent-2-ynoyl)azetidin-3-yl)oxy)methyl)-N-((2^2S,6^3S,4S)-1^2-(2-((S)-1-methoxyethyl)pyridin-3-yl)-10,10-dimethyl-5,7-dioxo-1^1-(2,2,2-trifluoroethyl)-6^1,6^2,6^3,6^4,6^5,6^6-hexahydro-1^1H-8-oxa-2(4,2)-morpholina-1(5,3)-indola-6(1,3)-pyridazinacycloundecaphane-4-yl)-3-methylbutanamide], the pEC50 in experiment [1] was > 5.30. The pIC50 in experiment [2] is < 5.00; in experiment [3], < 5.00; in experiment [4] it was 5.00 to 6.00; in experiment [5] it was < 5.00; in experiment [6] it was 5.00 to 6.00; in experiment [7] it was < 5.00.
Regarding `CCn1c(-c2cccnc2[C@H](C)OC)c2c3cc(ccc31)-c1cccc(c1)C[C@H](NC(=O)[C@H](C(C)C)N1CO[C@@]3(CCN(C(=O)C#CC(C)(C)N4CCC4)C3)C1=O)C(=O)N1CCC[C@H](N1)C(=O)OCC(C)(C)C2` (atropisomer, axis not shown) [Example A733], the pEC50 in experiment [1] is > 5.30. The pIC50 is 5.00 to 6.00 in experiment [2]; < 5.00 in experiment [3]; < 5.00 in experiment [4]; 5.00 to 6.00 in experiment [5]; 6.00 to 7.00 in experiment [6]; < 5.00 in experiment [7].
Take `C=CC(=O)N1CCOC2(CCN(C(=O)N(C)[C@H](C(=O)N[C@H]3Cc4nc(cs4)-c4ccc5c(c4)c(c(-c4cccnc4[C@H](C)OC)n5CC)CC(C)(C)COC(=O)[C@@H]4CCCN(N4)C3=O)C(C)C)CC2)C1` (atropisomer, axis not shown) [Example A695]: in experiment [1], the pEC50 was > 5.30. For the same compound, the pIC50 in experiment [2] is 6.00 to 7.00; in experiment [3], 6.00 to 7.00; in experiment [4] it was 6.00 to 7.00; in experiment [5] it was 6.00 to 7.00; in experiment [6], 7.00 to 8.00; in experiment [7], 6.00 to 7.00.
As to `CCn1c(-c2cccnc2[C@H](C)OC)c2c3cc(ccc31)-c1cnc(o1)C[C@H](NC(=O)[C@H](C(C)C)N(C)C(=O)[C@H]1CCN(C(=O)C#CC(C)(C)N(C)C)C1)C(=O)N1CCC[C@H](N1)C(=O)OCC(C)(C)C2` (atropisomer, axis not shown) [Example A692, (3S)-1-(4-(dimethylamino)-4-methylpent-2-ynoyl)-N-((2S)-1-(((6^3S,4S)-1^1-ethyl-1^2-(2-((S)-1-methoxyethyl)pyridin-3-yl)-10,10-dimethyl-5,7-dioxo-6^1,6^2,6^3,6^4,6^5,6^6-hexahydro-1^1H-8-oxa-2(5,2)-oxazola-1(5,3)-indola-6(1,3)-pyridazinacycloundecaphane-4-yl)amino)-3-methyl-1-oxobutan-2-yl)-N-methylpyrrolidine-3-carboxamide], the pEC50 in experiment [1] is > 5.30. The pIC50 in experiment [2] is 5.00 to 6.00; in experiment [3] it was < 5.00; in experiment [4], 5.00 to 6.00; in experiment [5], 5.00 to 6.00; in experiment [6], 6.00 to 7.00; in experiment [7] it was < 5.00.
Consider `C=CC(=O)N1CC[C@H](C(=O)N(C)[C@H](C(=O)N[C@H]2Cc3cccc(c3)-c3ccc4c(c3)c(c(-c3cc(CN(C)C)cnc3[C@H](C)OC)n4CC)CC(C)(C)COC(=O)[C@@H]3CCCN(N3)C2=O)C(C)C)C1` (atropisomer, axis not shown) [Example A522], for which the pEC50 in experiment [1] is > 5.30. The pIC50 in experiment [2] was 5.00 to 6.00; in experiment [3] it was 5.00 to 6.00; in experiment [4], 5.00 to 6.00; in experiment [5] it was 6.00 to 7.00; in experiment [6], 5.00 to 6.00; in experiment [7] it was 5.00 to 6.00.
For the compound `CO[C@@H](C)c1ncccc1-c1c2c3cc(ccc3n1CC(F)(F)F)-c1cc(F)cc(c1)C[C@H](NC(=O)[C@@H](COC1CN(C(=O)C#CC(C)(C)N(C)C)C1)C(C)C)C(=O)N1CCC[C@H](N1)C(=O)OCC(C)(C)C2` (atropisomer, axis not shown) [Example A348], the pEC50 in experiment [1] is > 5.30. Also, the pIC50 in experiment [2] is 5.00 to 6.00; in experiment [3], < 5.00; in experiment [4], 5.00 to 6.00; in experiment [5] it was 5.00 to 6.00; in experiment [6], 5.00 to 6.00; in experiment [7], < 5.00.
As for `C=CC(=O)N1CC[C@H]2[C@@H](C1)CN2C(=O)N(C)[C@H](C(=O)N[C@H]1Cc2nc(cs2)-c2ccc3c(c2)c(c(-c2cccnc2[C@H](C)OC)n3CC)CC(C)(C)COC(=O)[C@@H]2CCCN(N2)C1=O)C(C)C` (atropisomer, axis not shown) [Example A687], in experiment [1], the pEC50 is > 5.30. Moreover, the pIC50 in experiment [2] was 6.00 to 7.00; in experiment [3] it was 6.00 to 7.00; in experiment [4] it was 6.00 to 7.00; in experiment [5], 7.00 to 8.00; in experiment [6] it was 6.00 to 7.00; in experiment [7], 6.00 to 7.00.
With `C=CC(=O)N1CCC(C(=O)N(C)[C@H](C(=O)N[C@H]2Cc3cc(CF)cc(c3)-c3ccc4c(c3)c(c(-c3cccnc3[C@H](C)OC)n4CC(F)(F)F)CC(C)(C)COC(=O)[C@@H]3CCCN(N3)C2=O)C(C)C)C1` (stereo partly shown) [Example A659], in experiment [1], the pEC50 is > 5.30. For the same compound, the pIC50 in experiment [2], in experiment [3], in experiment [4], in experiment [5], in experiment [6] and in experiment [7] was 6.00 to 7.00 throughout.
As for `C=CC(=O)N1CC[C@H](C(=O)N(C)[C@H](C(=O)N[C@H]2Cc3cc(O)cc(c3)-c3ccc4c(c3)c(c(-c3cnn5c3[C@@H](OC)CCC5)n4CC)CC(C)(C)COC(=O)[C@@H]3CCCN(N3)C2=O)C(C)C)C1` [Example A300], in experiment [1], the pEC50 was > 5.30. Moreover, the pIC50 in experiment [2] was 7.00 to 8.00; in experiment [3], 6.00 to 7.00; in experiment [4], 7.00 to 8.00; in experiment [5], 7.00 to 8.00; in experiment [6] it was 7.00 to 8.00; in experiment [7], 7.00 to 8.00.
On to `C=CC(=O)C1CC[C@H](C(=O)N(C)[C@H](C(=O)N[C@H]2Cc3cc(O)cc(c3)-c3ccc4c(c3)c(c(-c3cnn(C)c3[C@H](C)OC)n4CC)CC(C)(C)COC(=O)[C@@H]3CCCN(N3)C2=O)C(C)C)C1` (stereo partly shown) [Example A166], for which the pEC50 in experiment [1] is > 5.30. For the same compound, the pIC50 was 6.00 to 7.00 in experiment [2]; 5.00 to 6.00 in experiment [3]; 6.00 to 7.00 in experiment [4]; 6.00 to 7.00 in experiment [5]; 6.00 to 7.00 in experiment [6]; 5.00 to 6.00 in experiment [7].
Turning to `CCn1c(-c2cccnc2[C@H](C)OC)c2c3cc(ccc31)-c1cccc(c1)C[C@H](NC(=O)[C@@H](COC1CN(C(=O)C#CC(C)(C)N3CCC3)C1)C(C)C)C(=O)N1CCC[C@H](N1)C(=O)OCC(C)(C)C2` (atropisomer, axis not shown) [Example A346], the pEC50 in experiment [1] is > 5.30. The pIC50 was < 5.00 in experiment [2]; < 5.00 in experiment [3]; < 5.00 in experiment [4]; 5.00 to 6.00 in experiment [5]; 5.00 to 6.00 in experiment [6]; < 5.00 in experiment [7].
For the compound `C=CC(=O)N(C)CCC1CCN(C(=O)N(C)[C@H](C(=O)N[C@H]2Cc3nc(cs3)-c3ccc4c(c3)c(c(-c3cccnc3[C@H](C)OC)n4CC)CC(C)(C)COC(=O)[C@@H]3CCCN(N3)C2=O)C(C)C)CC1` (atropisomer, axis not shown) [Example A621], the pEC50 in experiment [1] is > 5.30. In addition, the pIC50 in experiment [2] was 7.00 to 8.00; in experiment [3], 7.00 to 8.00; in experiment [4] it was 7.00 to 8.00; in experiment [5] it was > 8.00; in experiment [6] it was 7.00 to 8.00; in experiment [7], 6.00 to 7.00.

As usually defined, the pEC50 is the negative decadic logarithm of the EC50, by convention in mol/L. A word on the pIC50: it is −log10 of the IC50, conventionally taken in molar units. By IC50 is commonly meant the concentration that gives 50% inhibition.
